# Data as given in US7282215B2, “Supports for photosensitizer formulations” (The University of British Columbia, priority 2000, dated 2007).
# Read-outs that look alike come from different tables or passages of the source. Marks after values point to notes of the source that are not given here.
# Columns and labels:
# [1] = Drug loading of liposomal versus 10% P123 formulations; format: physicochemical; conditions: prepared at 2 mg/ml; for Drug loading, P123: Pluronic P123 10% weight/volume; for Drug loading, Liposome: liposomal formulation
# Description: 5 mg drug and lipids (40% EPG in DMPC) are combined in CH2Cl2 at a drug to lipid ratio of 1:10 w/w in 250 ml round bottom flask. The maximum concentration of drug in solvent is 2 mg/ml. CH2Cl2 is removed rapidly as described in Example 5. The resulting thin film is hydrated with 2.5 ml lactose solution (9.5% w/v) using hand swirling with glass beads at 40° C. Extrusion using Model 4T (Lipex Biomembranes Inc. B.C., Canada) is carried out with the thermostat set at 40° C. The multilamellar vesicles (MLVs) arising from hydration steps of the liposomal formulation were also examined under the microscope. MLVs are successively extruded 5 times through each of the 400 nm, 200 nm and 100 nm polycarbonate membranes (Nuclepore PC, Costar). Extruded samples were diluted 1:100 in PBS (pH 7.4) and the absorbance determined at 690 nm wavelength.
# In this experiment liposomal and block copolymer (micellar) photosensitizer formulations of A- and B-ring compounds of EA6 and B3 were compared. Each of the photosensitizer samples was prepared at a final drug concentration of 2 mg/ml. The block copolymer P123, and the liposomal formulations were prepared as described in the Examples 5 and 6, respectively.
# [2] = Vesicle size of liposomal A-EA6 after microfluidization; format: physicochemical; conditions: for Size: 10 mL batch
# Description: MLVs obtained from each of the conventional and micro-thin films of EA6-A in 3% w/w DMPG/DMPC prepared in Example 24 were introduced into the reaction chamber of a small microfluidizer (23 ml capacity; M110S, Microfluidics). […] The reaction chamber was immersed in ice, with the pressure transducer (Dynisco μPR 690) setting adjusted to 10,000 psi.
# Use of the microfluidizer required priming the system with 9.2% lactose. The dead volume retained was considerably higher than stated in the manual, and as a result, only ˜2 mL of undiluted sample was recovered after the first pass in each case. […] Processing was carried out for a total of 6 passes, with 200 μl samples being removed for particle sizing following every pass. Due to limited recovery and dilution of the above samples, 2 larger batches (20 mL) were prepared using the conventional thin film process, and microfluidized with a total of 5 passes. To avoid excessive dilution of the unilammelar vesicles, recovery was limited to 8 mL.
# Microfluidisation was repeated with larger volumes of 20 mL. […] The final concentration of A-EA6 in both batches (HH02-5 A and HH02-5 B) was 1.5 mg/mL. These samples were processed with the microfluidiser in a hot water bath at 45° C. instead of ice to prevent suspension temperature falling below the phase transition of DMPC in between passes. Size determination was carried out by laser light scattering on a NICOMP™ 370 Submicron Particle Sizer.
# [3] = as above; format: physicochemical
# [4] = Liposomal drug release to FBS by fluorescence (Ffbs/Ftx); format: in vitro ADME, bovine; conditions: 37° C., n=2
# Description: This experiment test drug release from micro-thin film preparations and conventional thin film vesicles (76 nm and 98 nm) produced in Example 25. The assay was carried out using an Aminco-Bowman 2 Fluorescence Spectrometer. It has previously been observed in the liposomal photosensitizer formulations that the fluorescence from the photosensitizer drug is quenched due to the high ratio of drug to lipid present. […] Fluorescence signal from liposomal suspensions is therefore low, and increases only when the drug leaves the bilayer for an alternative binding site.
# The increase in fluorescence signal reflects liposomal drug transfer in proportion to the rate and extent of transfer to added serum components.
# The liposomal suspension is diluted with 5% Dextrose to give an absorbance of 0.1 at the excitation wavelength (430 nm). […] 100 μl of FBS is added to the cuvette, and increase in fluorescence is monitored (following a quick couple of inversions) over 2-3 min if necessary. Once a steady level is achieved (noted as Ffbs), the liposomal system is disrupted using 0.05% v/v Triton X-100 to get a 100% drug level. The maximum fluorescence level is noted as Ftx. The ratio of Ffbs/Ftx gives an estimation of liposomal drug release, and is highly reproducible (SD ˜0-2% for n=5). Reported release results are based on 2-5 repeat assays depending on instrumental stability.
# [5] = pH studies of copolymer formulations; format: physicochemical; conditions: acidification
# Description: Counteracting the oily nature of P123 could be achieved by incorporation of copolymer that is in solid form at room temperature. The use of 1% w/w F127 with 9% w/v P123 instead of 10% P123 (w/v) produced a thin film, which was more readily hydrated. […] This necessitates hydration of the solid drug-polymer with a very mild buffer to counteract acidification which occurs upon use of sterile packed distilled water as commonly practiced in clinical settings. Behavior of poloxamers is unaffected by pH, and the use of buffers would be entirely dependent on ionizable groups present on the drug substance.
# L1210 cells = assay: In vitro phototoxicity (MTT assay after light exposure); format: cell-based
# Description: Exposure to drugs was carried out in the presence and absence of fetal calf serum (FCS) as a model to study transfer of drug to cells in vivo. […] A suspension of L1210 cells was prepared and exposed to various drug formulations (drug concentrations ranging from 0-50 ng/ml) either in the absence or presence of 10% fetal calf serum (FCS). One hour later, the drug was removed by pelleting the cells by centrifugation. The pellet was briefly washed with 1 ml DME and resuspended in 5% FCS/DME. 100 μl of the cell suspension was aliquoted into 6 wells of a 96 well plate, and the plate exposed to light at 10 J/cm^2. Viability was determined 24 h post exposure using the MTT assay (Mosmann, J. Immunol. Meth. 65:55-63, 1983).
# [6] = system: M1 rhabdomyosarcoma tumor; assay: PDT tumor recurrence in tumor mouse model; format: in vivo, DBA/2 mouse; set-up: key to Percent (%) Mice Tumor Free: Mice suffered from phototoxic (PT) reaction at the site of light exposure and were subsequently euthanized
# Description: Photosensitizer formulations were prepared in 10% w/v Pluronics as described in Example 4. BPD-MA was formulated in F127. B-ring compounds B-EA6 and B-B3, were prepared in P123 due to insufficient drug loading in F127. Liposomal BPD-MA formulation was Verteporfin™ and B-ring compounds were formulated in the same lipid composition. Where DMSO/plasma preparations were made, the DMSO dissolved drug was added directly to mouse plasma and the drug association with different plasma components was observed.
# In these experiments the tumor model used was the DBA/2 mouse (males) inoculated intradermally with M1 rhabdomyosarcoma tumor cells (M1, ATCC. When tumors reached a diameter of 4-6 mm, the mice (n=10, unless other wise stated) were treated with photodynamic therapy (PDT). PDT involved intravenous injection of the formulated drug in 0.2 mL volume of PBS. This was followed by exposure of the tumor region to laser light (Argon pumped dye laser (5W), 690 nm, 50J/cm2) 15 min later. Animals were then monitored for tumor recurrence over a 20 day period post treatment.
# [7] = JM4 at 2 mg/ml, after overnight storage and centrifugation
# Description: 1 to 2 mg drug and 25-100 mg Pluronic are combined in methylene dichloride (CH2Cl2) to yield drug concentration of 1 mg/ml. CH2Cl2 is removed rapidly by rotary evaporation (Rotavapor R-124, Bucchi B172 Vacobox pump) at 50°, at maximum speed of rotation. Once a steady minimum pressure is achieved, the flask is held under vacuum for a further 20-30 min. […] Samples are kept overnight at room temperature to allow unincorporated drug to fall out, and then spun at 14,000 rpm {Eppendorff, Microfuge} for 30 min. Supernatant is decanted off into a fresh Eppendorff vial, and diluted 1:100 in the iso-osmolar medium used for thin film hydration (PBS or lactose) for determination of absorbance 690 nm (A690). Formulations are stored at 4° C. or frozen at −20° C. for long term storage.
# In this experiment the following three selected dihydroxychlorins were examined for formulation with 10% P123. Each of the drugs was prepared to a final concentration level of 1 mg/ml and the formulation protocol used is described in Example 5. These compounds were prepared as described in U.S. patent application Ser. Nos. 09/551,159 and 09/551,160, both filed Apr. 14, 2000, and No. 60/129,324, filed Apr. 14, 1999, all three of which are hereby incorporated by reference as if fully set forth. One of these compounds, JM4, was further tested for drug incorporation using 2.5 to 10% P123.
smiles,measurement,setting,value
C=Cc1c(C)c2cc3nc(cc4[nH]c(cc5nc(cc1[nH]2)C(C)=C5CCC(=O)OC)c(CCC(=O)OC)c4C)C1(C)C3=CC=C(C(=O)O)C1C(=O)OC (stereo not drawn) [A-B3],"Drug loading, P123",[1],1.33 mg/mL
same,"Drug loading, Liposome",[1],1.84 mg/mL
"C=Cc1c(C)c2cc3nc(cc4[nH]c(cc5nc(cc1[nH]2)C(C)=C5CCC(=O)OCCO)c(CCC(=O)OCCO)c4C)C1(C)C3=CC=C(C(=O)OC)C1C(=O)OC (stereo not drawn) [A-EA6, Diethyleneglycol Ester A-ring]",Size,"[2]; conventional thin film, pass 3",81 + 21^2 nm
same,Size,"[2]; conventional thin film, pass 4",63 nm
same,Size,"[2]; conventional thin film, pass 5",66 nm
same,Size,"[2]; conventional thin film, pass 6",63 nm
same,Mean vesicle size,"[2]; conventional thin film, 20 mL, after the first pass",98 nm
same,Size,"[2]; micro-thin film, pass 1",141 + 54^2 nm
same,Size,"[2]; micro-thin film, pass 2",62 nm
same,Size,"[2]; micro-thin film, pass 3",67 nm
same,Size,"[2]; micro-thin film, pass 4",59 nm
same,Size,"[2]; micro-thin film, pass 5",60 nm
same,Size,"[2]; micro-thin film, pass 6",57 nm
same,Vesicle size,"[2]; microfluidized, 10 mL volume",~60 nm
same,Vesicle size,[3]; final extrusion through 100 nm filters,100-110 nm
same,Mean vesicle size,"[3]; micro-thin film, 20 mL, after the first pass",76 nm
same,"Drug loading, P123",[1],1.82 mg/mL
same,"Drug loading, Liposome",[1],0.98 mg/mL
same,Drug release from liposomal formulation to 5% FBS,[4]; micro-thin film batch,72%
same,Drug release from liposomal formulation to 5% FBS,[4]; thin film batch,67%
C=Cc1c(C)c2cc3nc(cc4[nH]c(cc5nc(cc1[nH]2)C1(C)C5=CC=C(C(=O)OC)C1C(=O)OC)c(C)c4CCC(=O)OCCO)C(CCC(=O)OCCO)=C3C (stereo not drawn) [B-EA6],pH dependency of formulation stability,[5],does not display any pH-dependency
same,LD50,"L1210 cells; Carrier Copolymer (P123), +FCS (10%)",12.9* ng/ml
same,LD50,"L1210 cells; Carrier Copolymer (P123), −FCS",2.06* ng/ml
same,LD50,"L1210 cells; Carrier DMSO, +FCS (10%)",20.0 ng/mL
same,LD50,"L1210 cells; Carrier DMSO, −FCS",4.7 ng/mL
same,LD50,"L1210 cells; Carrier Liposomal, +FCS (10%)",19.7 ng/mL
same,LD50,"L1210 cells; Carrier Liposomal, −FCS, 1 h drug, light 10 J/cm^2, MTT 24 h",4.7 ng/mL
same,"Drug loading, P123",[1],0.37 mg/mL
same,"Drug loading, Liposome",[1],0.06 mg/mL
same,Reaction at the irradiated site,"[6]; 1 mg/kg, formulated in P123, tumor bearing mice",strong phototoxic reaction (edema)
same,Percent (%) Mice Tumor Free,"[6]; Liposomal, 1.0 mg/kg i.v., 690 nm 50J/cm2 15 min later, Day 7",90%
same,Percent (%) Mice Tumor Free,"[6]; Liposomal, 1.0 mg/kg, Day 14",70%
same,Percent (%) Mice Tumor Free,"[6]; Liposomal, 1.0 mg/kg, Day 20",60%
same,Percent (%) Mice Tumor Free,"[6]; Pluronic P123, 0.5 mg/kg, Day 7",80%
same,Percent (%) Mice Tumor Free,"[6]; Pluronic P123, 0.5 mg/kg, Day 14",60%
same,Percent (%) Mice Tumor Free,"[6]; Pluronic P123, 0.5 mg/kg, Day 20",40%
same,Percent (%) Mice Tumor Free,"[6]; Pluronic P123, 1.0 mg/kg, Day 7",PT^1
same,Percent (%) Mice Tumor Free,"[6]; Pluronic P123, 1.0 mg/kg, Day 14",PT^1
same,Percent (%) Mice Tumor Free,"[6]; Pluronic P123, 1.0 mg/kg, Day 20",PT^1
"Cc1ccc(-c2c3nc(c(-c4ccc(C)cc4)c4ccc([nH]4)c(-c4ccc(C)cc4)c4nc(c(-c5ccc(C)cc5)c5ccc2[nH]5)C(O)C4O)C=C3)cc1 (stereo not drawn) [JM4, 5, 10, 15, 20-tetra (para-methyl phenyl)-2,-3-dihydroxychlorin]",Incorporation,[7]; P123 2.5% w/v,0.92 mg/mL
same,Incorporation,[7]; P123 5% w/v,1.43 mg/mL
same,Incorporation,[7]; P123 10% w/v,2.00 mg/mL
